Structures are written as SMILES.

The nature of data set [1]: The drug is tested on WLS-170 corresponding to human gut metagenome with ENA study accession number: PRJEB37062 and ENA sample accession number: ERS12561762 for biotransformation under anaerobic condition. The drug concentrations were measured over 9 timepoints collected between 0 and 24 hours of incubation by liquid-chromatography-coupled mass spectrometry (LC–MS). Particulars: 2 µM.

For data set [2] the following is noted: human gut metagenome, 24 h, 2 µM.
Data set [3] can be described thus: The drug is tested on WLS-077 corresponding to human gut metagenome with ENA study accession number: PRJEB37062 and ENA sample accession number: ERS12561750 for biotransformation under anaerobic condition. The drug concentrations were measured over 9 timepoints collected between 0 and 24 hours of incubation by liquid-chromatography-coupled mass spectrometry (LC–MS). Particulars: 2 µM.

The conditions of data set [4]: human gut metagenome, 24 h, 2 µM. The source holds these as a separate data set.
The conditions of data set [5]: human gut metagenome, 24 h, 2 µM. This is another data set of the same source.
For data set [6] the following is noted: human gut metagenome, 24 h, 2 µM. The source holds these as a separate data set.
The nature of data set [7]: The drug is tested on WLS-240 corresponding to human gut metagenome with ENA study accession number: PRJEB37062 and ENA sample accession number: ERS12561773 for biotransformation under anaerobic condition. The drug concentrations were measured over 9 timepoints collected between 0 and 24 hours of incubation by liquid-chromatography-coupled mass spectrometry (LC–MS). Particulars: 2 µM.

The nature of data set [8]: The drug is tested on Z-026 corresponding to metagenome with ENA study accession number: PRJEB37062 and ENA sample accession number: ERS12561825 for biotransformation under anaerobic condition. The drug concentrations were measured over 9 timepoints collected between 0 and 24 hours of incubation by liquid-chromatography-coupled mass spectrometry (LC–MS). Particulars: 2 µM.

Data set [9] can be described thus: The drug is tested on WLS-027 corresponding to human gut metagenome with ENA study accession number: PRJEB37062 and ENA sample accession number: ERS12561744 for biotransformation under anaerobic condition. The drug concentrations were measured over 9 timepoints collected between 0 and 24 hours of incubation by liquid-chromatography-coupled mass spectrometry (LC–MS). Particulars: 2 µM.

For data set [10] the following is noted: human gut metagenome, 24 h, 2 µM. This is another data set of the same source.
Data set [11] in a line: The drug is tested on Z-019 corresponding to rat gut metagenome with ENA study accession number: PRJEB37062 and ENA sample accession number: ERS12561818 for biotransformation under anaerobic condition. The drug concentrations were measured over 9 timepoints collected between 0 and 24 hours of incubation by liquid-chromatography-coupled mass spectrometry (LC–MS). The conditions noted are these: 2 µM.

The conditions of data set [12]: human gut metagenome, 24 h, 2 µM. This is another data set of the same source.
Data set [13] is described as follows: The drug is tested on Z-006 corresponding to mouse gut metagenome with ENA study accession number: PRJEB37062 and ENA sample accession number: ERS12561806 for biotransformation under anaerobic condition. The drug concentrations were measured over 9 timepoints collected between 0 and 24 hours of incubation by liquid-chromatography-coupled mass spectrometry (LC–MS). The conditions noted are these: 2 µM.

For data set [14] the following is noted: human gut metagenome, 24 h, 2 µM. The source holds these as a separate data set.
Data set [15] is described as follows: The drug is tested on Z-017 corresponding to mouse gut metagenome with ENA study accession number: PRJEB37062 and ENA sample accession number: ERS12561816 for biotransformation under anaerobic condition. The drug concentrations were measured over 9 timepoints collected between 0 and 24 hours of incubation by liquid-chromatography-coupled mass spectrometry (LC–MS). The conditions noted are these: 2 µM.

The conditions of data set [16]: human gut metagenome, 24 h, 2 µM. This is another data set of the same source.
A short description of data set [17]: The drug is tested on Z-014 corresponding to rat gut metagenome with ENA study accession number: PRJEB37062 and ENA sample accession number: ERS12561814 for biotransformation under anaerobic condition. The drug concentrations were measured over 9 timepoints collected between 0 and 24 hours of incubation by liquid-chromatography-coupled mass spectrometry (LC–MS). The conditions noted are these: 2 µM.

Data set [18] is described as follows: The drug is tested on Z-013 corresponding to rabbit gut metagenome with ENA study accession number: PRJEB37062 and ENA sample accession number: ERS12561813 for biotransformation under anaerobic condition. The drug concentrations were measured over 9 timepoints collected between 0 and 24 hours of incubation by liquid-chromatography-coupled mass spectrometry (LC–MS). Particulars: 2 µM.

For data set [19] the following is noted: human gut metagenome, 24 h, 2 µM. This is another data set of the same source.
The conditions of data set [20]: human gut metagenome, 24 h, 2 µM. This is another data set of the same source.
Note: call rule not given here.

Turning to `CC(C)N(CCC(C(N)=O)(c1ccccc1)c1ccccn1)C(C)C.O=P(O)(O)O` (stereo not given) [DISOPYRAMIDE PHOSPHATE], the “Bacterial Biotransformation” value in data set [1] was “Compound NOT metabolized”; in data set [2], “Compound NOT metabolized”; in data set [3] it was “Compound NOT metabolized”; in data set [4] it was “Compound NOT metabolized”; in data set [5], “Compound NOT metabolized”; in [6] it was “Compound metabolized”. Also, the “Bacterial Biotransformation” value in data set [7] was “Compound NOT metabolized”; in data set [8], “Compound NOT metabolized”; in data set [9], “Compound NOT metabolized”; in data set [10], “Compound metabolized”; in data set [11], “Compound NOT metabolized”; in data set [12], “Compound NOT metabolized”. The “Bacterial Biotransformation” value in [13], in [14], in [15], in data set [16], in data set [17] and in [18] was “Compound NOT metabolized” in each case. The “Bacterial Biotransformation” value was “Compound metabolized” in [19] and “Compound NOT metabolized” in data set [20].
Turning to `C[C@@H](CO)NC(=O)[C@@H]1C=C2c3cccc4[nH]cc(c34)C[C@H]2N(C)C1.O=C(O)/C=C\C(=O)O` [ERGONOVINE MALEATE], the “Bacterial Biotransformation” value in data set [1] is recorded as “Compound metabolized”; in data set [2], “Compound metabolized”; in data set [3] it was “Compound metabolized”; in data set [4], “Compound NOT metabolized”; in data set [5] it was “Compound NOT metabolized”; in data set [6], “Compound metabolized”. The “Bacterial Biotransformation” value in data set [7] was “Compound metabolized”; in data set [8], “Compound NOT metabolized”; in data set [9], “Compound metabolized”; in [10] it was “Compound NOT metabolized”; in data set [11], “Compound NOT metabolized”; in data set [12], “Compound metabolized”. The “Bacterial Biotransformation” value is listed as “Compound NOT metabolized” in [13]; “Compound metabolized” in data set [14]; “Compound NOT metabolized” in data set [15]; “Compound NOT metabolized” in [16]; “Compound NOT metabolized” in [17]; “Compound NOT metabolized” in [18]. Moreover, the “Bacterial Biotransformation” value in [19] was “Compound metabolized”; in [20], “Compound NOT metabolized”.
Take `CCN(CC)C(C)CN1c2ccccc2Sc2ccccc21` (stereo not given) [ETHOPROPAZINE]: the “Bacterial Biotransformation” value was “Compound metabolized” in data set [1]; “Compound metabolized” in [2]; “Compound metabolized” in [3]; “Compound NOT metabolized” in [4]; “Compound metabolized” in data set [5]; “Compound metabolized” in [6]. For the same molecule, the “Bacterial Biotransformation” value was “Compound metabolized” in [7]; “Compound NOT metabolized” in [8]; “Compound metabolized” in [9]; “Compound metabolized” in data set [10]; “Compound NOT metabolized” in data set [11]; “Compound metabolized” in data set [12]. The “Bacterial Biotransformation” value was “Compound NOT metabolized” in data set [13]; “Compound metabolized” in data set [14]; “Compound NOT metabolized” in [15]; “Compound metabolized” in data set [16]; “Compound NOT metabolized” in data set [17]; “Compound NOT metabolized” in [18]. Also, the “Bacterial Biotransformation” value in data set [19] and in [20] was “Compound metabolized” each time.
`Cc1nc(-c2ccc(OCC(C)C)c(C#N)c2)sc1C(=O)O` [FEBUXOSTAT]: the “Bacterial Biotransformation” value is “Compound metabolized” in data set [1]; “Compound metabolized” in data set [2]; “Compound metabolized” in [3]; “Compound NOT metabolized” in [4]; “Compound metabolized” in data set [5]; “Compound metabolized” in data set [6]. The “Bacterial Biotransformation” value in data set [7] was “Compound metabolized”; in data set [8], “Compound NOT metabolized”; in [9], “Compound metabolized”; in data set [10], “Compound metabolized”; in data set [11] it was “Compound NOT metabolized”; in data set [12], “Compound metabolized”. The “Bacterial Biotransformation” value in [13] is reported as “Compound NOT metabolized”; in [14], “Compound metabolized”; in data set [15], “Compound NOT metabolized”; in data set [16] it was “Compound metabolized”; in data set [17] it was “Compound NOT metabolized”; in data set [18], “Compound NOT metabolized”. The “Bacterial Biotransformation” value in data set [19] and in [20] was “Compound metabolized” in each case.
As to `CC(C)(C(=O)O)c1ccc(C(O)CCCN2CCC(C(O)(c3ccccc3)c3ccccc3)CC2)cc1` (stereo not given) [FEXOFENADINE], the “Bacterial Biotransformation” value in [1], in data set [2], in [3], in [4], in [5] and in data set [6] was “Compound NOT metabolized” each time. For the same molecule, the “Bacterial Biotransformation” value in data set [7], in data set [8], in data set [9], in [10], in data set [11] and in data set [12] was “Compound NOT metabolized” throughout. Also, the “Bacterial Biotransformation” value in data set [13], in data set [14], in [15], in data set [16], in data set [17] and in [18] was “Compound NOT metabolized” throughout. In addition, the “Bacterial Biotransformation” value in [19] and in [20] was “Compound NOT metabolized” each time.
As to `COc1ccc2c3c1O[C@H]1C[C@@H](O)C=C[C@@]31CCN(C)C2` [GALANTAMINE], the “Bacterial Biotransformation” value in data set [1] is reported as “Compound metabolized”; in data set [2], “Compound metabolized”; in data set [3], “Compound NOT metabolized”; in [4] it was “Compound NOT metabolized”; in [5], “Compound NOT metabolized”; in data set [6], “Compound metabolized”. In addition, the “Bacterial Biotransformation” value is “Compound metabolized” in data set [7]; “Compound NOT metabolized” in [8]; “Compound NOT metabolized” in data set [9]; “Compound NOT metabolized” in data set [10]; “Compound NOT metabolized” in data set [11]; “Compound metabolized” in [12]. Besides, the “Bacterial Biotransformation” value in [13], in data set [14], in data set [15], in data set [16], in data set [17] and in [18] was “Compound NOT metabolized” each time. Moreover, the “Bacterial Biotransformation” value in [19] and in [20] was “Compound NOT metabolized” each time.

(Values after ChEMBL document CHEMBL5724914, “Linking interpersonal differences in gut microbiota composition and drug biotransformation activity” (2024).)
